Values quoted from earlier work, collected in patent US6955812B2, “Health food and preparation having an anti-obesity effect” (Mitsubishi Heavy Industries, Ltd., priority 2001, dated 2005).

Test system: HepG2 cells
Conditions: cultured HepG2 cells of a human liver model; from Japanese patent application No. 2000-202404

NC(CO)CS(=O)(=O)O [D-cysteinolic acid]
effect on neutral fat (triglyceride): greatly suppressing
